Source: patent US20180340012A1, “METHODS AND CO[…] TO IMPROVING PROPERTIES OF PHARMACOLOGICAL AGENTS TARGETING NERVOUS SYSTEM” (University of Utah Research Foundation, priority 2006, published 2018)

Assays:
[1] = system: secondarily generalized partial seizures; test: Hippocampal kindled rat model of partial epilepsy; assay type: in vivo; conditions: i.p.; decreases from 5
[2] = system: clonic (s.c. Metrazol) seizures; test: s.c. Metrazol seizure test; assay type: in vivo, mice; conditions: 4 mg/kg i.p., tested one hour later
Description: Mice will be placed into individual plexiglas observation boxes and observed for 30 minutes for the presence of a minimal clonic seizure. Mice not displaying clonic seizure activity will be considered protected.

corneal kindling = test: Mouse corneal kindling acquisition; assay type: in vivo, CF#1 mice; conditions: 4 mg/kg i.p. twice daily
Description: CF#1 mice were randomized to receive either vehicle (0.9% saline) or NAX-5055. Mice in the NAX-5055 group received two doses of NAX-5055 twelve (12 h) and 1 h prior to their first kindling stimulation. One hour (1 h) prior to each subsequent stimulation, mice in the NAX-5055 treated group received another dose of NAX-5055 (4 mg/kg, i.p.). Mice were stimulated twice daily for 16 days. Results are expressed as the mean seizure score per stimulation. As noted above, the results for the NAX-5055 treated mice segregated into two populations; i.e., sensitive (green line) and insensitive (blue line).
Daily electrical stimulation via the cornea results in a stable kindled state within 15-20 days. This is an ideal model to initially assess the ability of selected galanin analogs to prevent kindling acquisition because the amount of peptide required is much lower than what is required for a rat kindling study. Those compounds found to be effective in preventing the acquisition of kindling are subsequently evaluated in a more traditional rat kindling model; i.e., amygdala kindled rat. For the proposed studies two groups of mice (n=8 mice per group) are randomized to receive either vehicle or peptide prior to each kindling stimulation. […] At the time to peak effect (obtained from the 6 Hz study), they are stimulated via corneal electrodes with a subconvulsive current (50 Hz, 3 mA, for 3.0 sec) and observed for the presence or absence of seizure activity. Seizure activity is scored according to the criteria established by Racine et al., (1972). Animals receive two stimulations per day until they display their first Stage 5 behavioral seizure and then once daily until they display stable secondarily generalized seizures (5 consecutive Stage 4-5 seizures). Peptide treatment continues in the experimental group until the point that the control mice become fully kindled. At this point, mice in both groups are permitted a one-week stimulus and treatment-free week. On the 8th day, mice in both groups are stimulated in the absence of peptide or vehicle and their seizure score recorded.
The ability of the blood-brain-barrier penetrant galanin-based neuropeptide NAX-5055 to prevent the development of corneal kindling was studied in CF#1 mice. The mouse corneal kindling model is a non-intrusive animal model of partial epilepsy wherein mice receive an initially subconvulsive current (3 mA) for 3 seconds via corneal electrodes twice daily for several days. Vehicle treated mice usually require between 12-16 days to reach a stable Stage 5 seizure; i.e., a secondary generalized focal seizure. In the present study, 16 mice were randomized to one of two experimental groups; saline or NAX-5055. […] Following stimulation seizure activity was scored on a scale of 0-5 as established by Racine (1972).

[3] = system: formalin-induced paw licking; test: Mouse formalin test; assay type: in vivo
Description: An injection of 0.5% formalin is made into the planter region of a mouse right hind paw. This elicits a distinct biphasic behavioral profile characterized by the mouse licking the affected paw. Immediately following the injection the mouse licks the paw for about 10 minutes. This is phase 1 (acute) and is followed by a brief latent period where there is little behavioral activity. A more prolonged period of about 20 to 30 minutes of paw licking ensues which constitutes phase 2 (inflammatory).
Prior to the administration of the active peptide, drug or vehicle each mouse undergoes a 15-minute conditioning period in one of several 6″ tall plexiglass observation tubes (4″ diameter) that are placed in front of a mirror. […] One hour after treatment, formalin was injected sub-dermally (20 μl; 27 gauge needle) into the plantar surface of the right hind foot. The bevel of the needle is placed facing down toward the skin surface. Following the injection of the formalin each animal is observed for first 2 minutes of each 5 minute epoch for a total of 45 minutes. The cumulative length of licking for each 2 minute time period was measured. An animal receiving the requisite volume of vehicle was alternated with each mouse given GAL-BBB2, Gal 1-16, or gabapentin. Animals were euthanized following the conclusion of the experiment.
Area under the curve (AUC) determination was made using the GraphPad Prism Version 3.03. Total AUC is calculated for both the test and control groups for both the acute and inflammatory phases. The AUC for individual animals for each phase is also calculated and converted to percentage of total AUC of control. The average percentages and SEM for both the drug treated and control were calculated and tested for significant difference.

[4] = system: tonic-extension (maximal electroshock) seizures; test: Maximal electroshock seizure test; assay type: in vivo, mice; conditions: 4 mg/kg i.p., tested one hour later
Description: Abolition of the hindleg tonic extensor component of the seizure is used as the endpoint.

sound-induced seizures = test: Frings audiogenic seizure-susceptible mouse model; assay type: in vivo
Description: The two modified galanin analogs (GAL-BBB1 and GAL-BBB2) were administered i.p. to a group of Frings audiogenic seizure susceptible mice in a dose of 4 mg/kg. At various times after administration (i.e., 15, 30, 60, 120, and 240 min) each mouse was placed into a cylindrical test chamber fitted with an audio transducer and challenged with a high-intensity sound stimulus (110 dB, 11 KHz for 20 sec). Animals not displaying tonic hind-limb extension were considered protected. […] In a subsequent study, anticonvulsant efficacy was quantitated at the time to peak effect (i.e., 1 h) in a dose-response study.
The ability of individual modified analogs to prevent seizures induced by sound in the AGS-susceptible Frings mouse model can be assessed at the time of peak effect (White et al., 1992). For this test, individual mice are placed into a plexiglass cylinder (diameter, 15 cm; height, 18 cm) fitted with an audio transducer (Model AS-ZC; FET Research and Development, Salt Lake City, Utah), and exposed to a sound stimulus of 110 decibels (11 KHz) delivered for 20 seconds. Sound-induced seizures are characterized by wild running followed by loss of righting reflex with forelimb and hindlimb tonic extension. Mice not displaying hindlimb tonic extension are considered protected.
At various times after administration (i.e., 15, 30, 60, 120, and 240 min) each mouse was placed into a cylindrical test chamber fitted with an audio transducer and challenged with a high-intensity sound stimulus (110 dB, 11 KHz for 20 sec).

With “Sar-Trp-Thr-Leu-Asn-Ser-Ala-Gly-Tyr-Leu-Leu-Gly-Pro-Lys-Lys-(Lys-palm)-Lys-NH2 [NAX 5055]” the seizure score [1] was 3, the “protection in s.c. Metrazol seizure test” value [2] was 25% and the “kindling acquisition” value (corneal kindling) was “can delay kindling acquisition”. The “more stimulations to reach Stage 2 and Stage 3 seizures, NAX-5055 sensitive group” value (corneal kindling) was 35-40%, the “stimulations required to reach a Stage 1 seizure, NAX-5055 sensitive group” value (corneal kindling) was “two times more stimulations” and the “mice of NAX-5055 sensitive group that reached Stage 5 seizures” value (corneal kindling; sensitive n=3 of 8) was “none”. For the same substance, the “effect of 5 mg/kg compared with 10 mg/kg gabapentin” value ([3]; 5 mg/kg i.p.) was “equivalent”, the “paw licking, acute and inflammatory phase” value ([3]; 0.52-5 mg/kg i.p., 60 min before formalin) was “dose-dependent reduction” and the “Active at (flat phase II)” value ([3]; mouse formalin assay of inflammatory pain) was 5 mg/kg (“flat phase II”). The “activity in maximal electroshock seizure test” value [4] was “completely inactive”, the “blocking sound-induced seizures” value (sound-induced seizures; 4 mg/kg i.p., one hour after administration) was “effective” and the “duration of anticonvulsant effect” value (sound-induced seizures; 4 mg/kg, i.p.) was “between two and four hours”. For the same substance, the “onset of anticonvulsant effect” value (sound-induced seizures; 4 mg/kg, i.p.) was at most 30 min, the “anticonvulsant ED50 (approximate)” value (sound-induced seizures; given i.p., refers to Example 2) was about 3 mg/kg and the “median effective dose ED50 (95% confidence intervals)” value (sound-induced seizures; i.p., at time to peak effect 1 h, Probit analysis) was 3.2 (2.3−6.1) mg/kg.
